Test results: patent publication US20090170846A1, “INHIBITORS OF THE HIV INTEGRASE ENZYME” (Pfizer Inc, priority 2005, published 2009)
pEC50, pIC50: −log10 of the molar value.

Tests used:
[1] = biological target: T1, Full-length wild type HIV-1 integrase (SF1) (Human immunodeficiency virus type 1 group M subtype B, UniProt P04585); experiment: Integrase strand-transfer scintillation proximity assay; format: biochemical; settings: integrase strand-transfer SPA; read-out: IC50
T1 construct: made in house; host or cells: E. coli BL21 (DE3)
Summary of the method: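 Strand transfer used E. coli-expressed full-length HIV-1 integrase (aa 1–289). The donor was biotinylated, preprocessed U5 LTR viral ds-DNA bound to streptavidin SPA beads, with [3H]-thymidine-labelled host ds-DNA as target. Integration was detected by scintillation proximity.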

[2] = system: RF strain of HIV-1 in CEM-SS cells; experiment: HIV-1 cell protection assay (XTT dye reduction); format: cell-based; settings: Human immunodeficiency virus 1, CEM-SS, 144 h
Summary of the method: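 CEM-SS cells infected at an moi giving about 90% kill (mock-infected for toxicity) and exposed to half-log compound dilutions for six days; XTT/PMS added for 4 h, formazan read at 450 nm. EC50 as protection to 50% of uninfected control, CC50 from uninfected cells, therapeutic index as CC50/EC50.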

SMILES: O=C(NO)c1cc2c(C(=O)NCCN3CCOCC3)cn(Cc3ccc(F)cc3)c2cn1 [Example 27, 1-(4-fluorobenzyl)-N~5~- hydroxy-N~3~-(2-morpholin-4-ylethyl)-1H-pyrrolo[2,3-c]pyridine-3,5-dicarboxamide]
- pIC50 [1]: 7.12
- pEC50 [2]: 7.42

SMILES: CN(C)C1CCN(C(=O)c2cn(Cc3ccc(F)cc3)c3cnc(C(=O)NO)cc23)C1 (stereo not shown) [Example 26, 3-{[3-(dimethylamino)pyrrolidin-1-yl]carbonyl}-1-(4-fluorobenzyl)-N-hydroxy-1H-pyrrolo[2,3-c]pyridine-5-carboxamide]
- pIC50 [1]: 6.80
- pEC50 [2]: 7.05
